Columns and labels:
Format in all cases: functional, organism-based
Plasmodium berghei = assay: In vitro inhibitory activity against Plasmodium berghei
Plasmodium falciparum [1] = assay: In vitro inhibitory activity against Plasmodium falciparum FCB2
Plasmodium falciparum [2] = assay: In vitro inhibitory activity against Plasmodium falciparum FcB1

Compound	IC50 (Plasmodium berghei; Plasmodium berghei)	IC50 (Plasmodium falciparum [1])	IC50 (Plasmodium falciparum [2])	IC50 (Plasmodium berghei)
CCN(CC)CCCC(C)Nc1ccnc2cc(Cl)ccc12 (centres undefined) [CHLOROQUINE PHOSPHATE]	72 nM	–	–	–
Ruthenium-Chloroquine Complex[RuCl2(CQ)]2	–	46.5 nM	10.5 nM	18 nM
